# Assay results taken from the supplement of paper PMC11061612.
# What was measured:
# Palbociclib = compound: CC(=O)c1c(C)c2cnc(Nc3ccc(N4CCNCC4)cn3)nc2n(C2CCCC2)c1=O [Palbociclib]; conditions: max 10 µM
# Method in brief: (§1)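 In 1536-well plates, cancer cell lines in 7.5 μl DMEM/F12 or RPMI with 10% FBS spent 24 hours at 37°C and 5% CO2 and were then dosed for 72 hours with final DMSO typically 0.2%. Viability was read by CellTiter-Glo 2.0 luminescence and scaled between blank-well and DMSO-well means. The single-agent IC50 was fitted from dose responses using a logistic curve in a non-linear mixed effects model, and that logistic curve had two parameters.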
# Paclitaxel = compound: CC(=O)O[C@H]1C(=O)[C@@]2(C)[C@H]([C@H](OC(=O)c3ccccc3)[C@]3(O)C[C@H](OC(=O)[C@H](O)[C@@H](NC(=O)c4ccccc4)c4ccccc4)C(C)=C1C3(C)C)[C@]1(OC(C)=O)CO[C@@H]1C[C@@H]2O [Paclitaxel]; conditions: max 3 µM
# Method in brief: as §1
# AZD7648 = compound: Cc1cc2ncnn2cc1Nc1ncc2c(n1)n(C1CCOCC1)c(=O)n2C [AZD7648]; conditions: max 10 µM
# Method in brief: as §1
# Olaparib = compound: O=C(c1cc(Cc2n[nH]c(=O)c3ccccc23)ccc1F)N1CCN(C(=O)C2CC2)CC1 [Olaparib]; conditions: max 10 µM
# Method in brief: as §1
# MK-2206 = compound: NC1(c2ccc(-c3nc4ccn5c(=O)[nH]nc5c4cc3-c3ccccc3)cc2)CCC1 [MK-2206]; conditions: max 10 µM
# Method in brief: as §1
# Etoposide = compound: COc1cc([C@@H]2c3cc4c(cc3[C@@H](O[C@@H]3O[C@@H]5CO[C@@H](C)O[C@H]5[C@H](O)[C@H]3O)[C@H]3COC(=O)[C@H]23)OCO4)cc(OC)c1O [Etoposide]; conditions: max 10 µM
# Method in brief: as §1
# AZD5991 = compound: Cc1c2c(nn1C)CSCc1cc(n(C)n1)CSc1cc(c3ccccc3c1)OCCCc1c(C(=O)O)n(C)c3c-2c(Cl)ccc13 [AZD5991]; conditions: max 1 µM
# Method in brief: as §1
# Lapatinib = compound: CS(=O)(=O)CCNCc1ccc(-c2ccc3ncnc(Nc4ccc(OCc5cccc(F)c5)c(Cl)c4)c3c2)o1 [Lapatinib]; conditions: max 10 µM
# Method in brief: as §1
# Carboplatin = compound: C1CC(C1)(C(=O)[O-])C(=O)[O-].N.N.[Pt+2] [Carboplatin]; conditions: max 10 µM
# Method in brief: as §1
# Savolitinib = compound: C[C@@H](c1ccc2nccn2c1)n1nnc2ncc(-c3cnn(C)c3)nc21 [Savolitinib]; conditions: max 1 µM
# Method in brief: as §1
# Gemcitabine = compound: Nc1ccn([C@@H]2O[C@H](CO)[C@@H](O)C2(F)F)c(=O)n1 [Gemcitabine]; conditions: max 0.3 µM
# Method in brief: as §1
# AZD0156 = compound: CN(C)CCCOc1ccc(-c2ccc3ncc4c(c3c2)n(C2CCOCC2)c(=O)n4C)cn1 [AZD0156]; conditions: max 3 µM
# Method in brief: as §1
# Doxorubicin = compound: COc1cccc2c1C(=O)c1c(O)c3c(c(O)c1C2=O)C[C@@](O)(C(=O)CO)C[C@@H]3O[C@H]1C[C@H](N)[C@H](O)[C@H](C)O1 [Doxorubicin]; conditions: max 1 µM
# Method in brief: as §1
# Crizotinib = compound: C[C@@H](Oc1cc(-c2cnn(C3CCNCC3)c2)cnc1N)c1c(Cl)ccc(F)c1Cl [Crizotinib]; conditions: max 10 µM
# Method in brief: as §1
# SRA737 = compound: N#Cc1cnc(Nc2cc(NC[C@H]3CNCCO3)c(C(F)(F)F)cn2)cn1 [SRA737]; conditions: max 10 µM
# Method in brief: as §1
# Prexasertib = compound: COc1cccc(OCCCN)c1-c1cc(Nc2cnc(C#N)cn2)n[nH]1 [Prexasertib]; conditions: max 1 µM
# Method in brief: as §1
# AZD4320 = compound: CN(CC[C@H](CSC1=CC=CC=C1)NC2=C(C=C(C=C2)S(=O)(=O)NC(=O)C3=CC=C(C=C3)N4CCC(CC4)[C@H](C5=CC=CC=C5C6=CC=C(C=C6)Cl)O)S(=O)(=O)C(F)(F)F)CCO [AZD4320]; conditions: max 1 µM
# Method in brief: as §1
# AZD5153 = compound: COc1nnc2ccc(N3CCC(c4ccc(OCCN5CCN(C)C(=O)[C@H]5C)cc4)CC3)nn12 [AZD5153]; conditions: max 1 µM
# Method in brief: as §1
# SN-38 = compound: CCc1c2c(nc3ccc(O)cc13)-c1cc3c(c(=O)n1C2)COC(=O)[C@]3(O)CC [SN-38]; conditions: max 0.3 µM
# Method in brief: as §1
# Trametinib = compound: CC(=O)Nc1cccc(-n2c(=O)n(C3CC3)c(=O)c3c(Nc4ccc(I)cc4F)n(C)c(=O)c(C)c32)c1 [Trametinib]; conditions: max 1 µM
# Method in brief: as §1
# AZD6738 = compound: C[C@@H]1COCCN1C2=NC(=NC(=C2)C3(CC3)[S@](=N)(=O)C)C4=C5C=CNC5=NC=C4 [AZD6738]; conditions: max 10 µM
# Method in brief: as §1
# [1] = compound: O=C(Nc1ccc2[nH]nc(-c3ccncc3)c2c1)[C@@H]1CCN(CC(=O)N2CCN(c3ccc(-c4ncccn4)cc3)CC2)C1; conditions: max 5 µM
# Method in brief: as §1
# Venetoclax = compound: CC1(C)CCC(CN2CCN(c3ccc(C(=O)NS(=O)(=O)c4ccc(NCC5CCOCC5)c([N+](=O)[O-])c4)c(Oc4cnc5[nH]ccc5c4)c3)CC2)=C(c2ccc(Cl)cc2)C1 [Venetoclax]; conditions: max 1 µM
# Method in brief: as §1
# 5-Fluorouracil = compound: O=c1[nH]cc(F)c(=O)[nH]1 [5-Fluorouracil]; conditions: max 20 µM
# Method in brief: as §1
# Selumetinib = compound: Cn1cnc2c(F)c(Nc3ccc(Br)cc3Cl)c(C(=O)NOCCO)cc21 [Selumetinib]; conditions: max 10 µM
# Method in brief: as §1
# AZD8186 = compound: C[C@@H](Nc1cc(F)cc(F)c1)c1cc(C(=O)N(C)C)cc2c(=O)cc(N3CCOCC3)oc12 [AZD8186]; conditions: max 10 µM
# Method in brief: as §1
# Alisertib = compound: COc1cc(Nc2ncc3c(n2)-c2ccc(Cl)cc2C(c2c(F)cccc2OC)=NC3)ccc1C(=O)O [Alisertib]; conditions: max 10 µM
# Method in brief: as §1
# Taselisib = compound: Cc1nc(-c2cn3c(n2)-c2ccc(-c4cnn(C(C)(C)C(N)=O)c4)cc2OCC3)n(C(C)C)n1 [Taselisib]; conditions: max 10 µM
# Method in brief: as §1
# AZD2811 = compound: CCN(CCO)CCCOc1ccc2c(Nc3cc(CC(=O)Nc4cccc(F)c4)[nH]n3)ncnc2c1 [AZD2811]; conditions: max 1 µM
# Method in brief: as §1
# AZD5363 = compound: C1CN(CCC1(C(=O)N[C@@H](CCO)C2=CC=C(C=C2)Cl)N)C3=NC=NC4=C3C=CN4 [AZD5363]; conditions: max 10 µM
# Method in brief: as §1
# Gefitinib = compound: COc1cc2ncnc(Nc3ccc(F)c(Cl)c3)c2cc1OCCCN1CCOCC1 [Gefitinib]; conditions: max 10 µM
# Method in brief: as §1
# Dasatinib = compound: CC1=C(C(=CC=C1)Cl)NC(=O)C2=CN=C(S2)NC3=CC(=NC(=N3)C)N4CCN(CC4)CCO [Dasatinib]; conditions: max 2 µM
# Method in brief: as §1
# SG3199 = compound: CC1=CN2[C@@H](C1)C=NC3=CC(=C(C=C3C2=O)OC)OCCCCCOC4=C(C=C5C(=C4)N=C[C@@H]6CC(=CN6C5=O)C)OC [SG3199]; conditions: max 0.001 µM
# Method in brief: as §1
# AZD1775 = compound: C=CCn1c(=O)c2cnc(Nc3ccc(N4CCN(C)CC4)cc3)nc2n1-c1cccc(C(C)(C)O)n1 [AZD1775]; conditions: max 3 µM
# Method in brief: as §1
# AZD1390 = compound: CC(C)n1c(=O)n(C)c2cnc3cc(F)c(-c4ccc(OCCCN5CCCCC5)nc4)cc3c21 [AZD1390]; conditions: max 0.3 µM
# Method in brief: as §1
Cell Line,"IC50, cell viability 72 h (Palbociclib) [nM]","IC50, cell viability 72 h (Paclitaxel) [nM]","IC50, cell viability 72 h (AZD7648) [nM]","IC50, cell viability 72 h (Olaparib) [nM]","IC50, cell viability 72 h (MK-2206) [nM]","IC50, cell viability 72 h (Etoposide) [nM]","IC50, cell viability 72 h (AZD5991) [nM]","IC50, cell viability 72 h (Lapatinib) [nM]","IC50, cell viability 72 h (Carboplatin) [nM]","IC50, cell viability 72 h (Savolitinib) [nM]","IC50, cell viability 72 h (Gemcitabine) [nM]","IC50, cell viability 72 h (AZD0156) [nM]","IC50, cell viability 72 h (Doxorubicin) [nM]","IC50, cell viability 72 h (Crizotinib) [nM]","IC50, cell viability 72 h (SRA737) [nM]","IC50, cell viability 72 h (Prexasertib) [nM]","IC50, cell viability 72 h (AZD4320) [nM]","IC50, cell viability 72 h (AZD5153) [nM]","IC50, cell viability 72 h (SN-38) [nM]","IC50, cell viability 72 h (Trametinib) [nM]","IC50, cell viability 72 h (AZD6738) [nM]","IC50, cell viability 72 h [1] [nM]","IC50, cell viability 72 h (Venetoclax) [nM]","IC50, cell viability 72 h (5-Fluorouracil) [nM]","IC50, cell viability 72 h (Selumetinib) [nM]","IC50, cell viability 72 h (AZD8186) [nM]","IC50, cell viability 72 h (Alisertib) [nM]","IC50, cell viability 72 h (Taselisib) [nM]","IC50, cell viability 72 h (AZD2811) [nM]","IC50, cell viability 72 h (AZD5363) [nM]","IC50, cell viability 72 h (Gefitinib) [nM]","IC50, cell viability 72 h (Dasatinib) [nM]","IC50, cell viability 72 h (SG3199) [nM]","IC50, cell viability 72 h (AZD1775) [nM]","IC50, cell viability 72 h (AZD1390) [nM]"
SW1990 (Pancreatic Carcinoma),> 10000,> 3000,> 10000,> 10000,> 10000,> 10000,> 1000,> 10000,> 10000,> 1000,> 300,> 3000,> 1000,> 10000,9750,49.9,> 1000,> 1000,> 300,> 1000,> 10000,> 5000,> 1000,> 20000,> 10000,> 10000,> 10000,> 10000,> 1000,> 10000,> 10000,> 2000,> 1,> 3000,> 300
TE-5 (Esophageal Squamous Cell Carcinoma),> 10000,79.8,> 10000,> 10000,> 10000,> 10000,> 1000,> 10000,> 10000,> 1000,71.4,> 3000,> 1000,> 10000,> 10000,884,> 1000,> 1000,55.8,> 1000,> 10000,> 5000,> 1000,> 20000,> 10000,> 10000,> 10000,2040,> 1000,> 10000,> 10000,> 2000,> 1,> 3000,> 300
U-266 (Plasma Cell Myeloma),> 10000,10.2,> 10000,> 10000,> 10000,> 10000,219,> 10000,> 10000,> 1000,131,> 3000,> 1000,> 10000,> 10000,50.6,841,> 1000,> 300,225,> 10000,4960,> 1000,> 20000,> 10000,> 10000,9540,> 10000,> 1000,> 10000,> 10000,> 2000,> 1,1030,> 300
